Target: T1, human OX2R (Homo sapiens, UniProt O43614)
T1 construct: expressed in transfected cells; host or cells: CHO (Chinese hamster ovary) cells, grown under G418 selection
T1 sequence (O43614 1-444): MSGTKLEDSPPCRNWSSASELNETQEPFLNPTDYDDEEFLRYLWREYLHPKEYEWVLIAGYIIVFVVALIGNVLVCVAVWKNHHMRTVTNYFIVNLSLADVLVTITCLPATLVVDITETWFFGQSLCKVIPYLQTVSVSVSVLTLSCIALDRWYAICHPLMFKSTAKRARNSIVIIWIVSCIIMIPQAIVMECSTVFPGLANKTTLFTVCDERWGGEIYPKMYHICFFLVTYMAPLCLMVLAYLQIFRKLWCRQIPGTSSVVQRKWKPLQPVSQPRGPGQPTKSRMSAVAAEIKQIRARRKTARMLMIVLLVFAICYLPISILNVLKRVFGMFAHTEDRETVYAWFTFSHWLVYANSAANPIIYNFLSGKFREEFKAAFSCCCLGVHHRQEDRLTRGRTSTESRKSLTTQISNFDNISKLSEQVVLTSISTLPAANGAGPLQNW
Assay: IPOne (IP-1) orexin receptor agonist assay in CHO cells expressing human OX2R
Format: cell-based
Details: IPOne assay, CHO cells expressing human OX2R, 2 hours incubation; read-out: hoX2R_IP IC50
Source text: The utility of the compounds in accordance with the present invention as orexin receptor OX1R and/or OX2R agonists may be readily determined without undue experimentation by methodology well known in the art. Both the OX1R and/or OX2R G-coupled protein receptors (GPCRs) couple through the Gaq signaling pathway, which ultimately promotes calcium mobilization via inositol triphosphate (IP3) production. The half-life of IP-3 is relatively short, being rapidly metabolized to inositol monophosphate (IP-1), which can be readily detected using a commercially available assay kit (IP-One; Cisbio; cat #621PAPEC) coupled with a cell line expressing the target receptor(s) of interest. The utility of the compounds in accordance with the present invention as orexin receptor OX1R and/or OX2R agonists may be determined utilizing this assay.
In a typical experiment, the OX1 and OX2 receptor agonist activity is determined in accordance with the following general experimental method. Chinese hamster ovary (CHO) cells expressing human OX1R and/or the human OX2R were grown in Iscove's modified DMEM containing glutaMAX™, 1% G418, 100 U/mL penicillin, 100 μg/mL streptomycin and 10% heat-inactivated qualified fetal bovine serum (FBS). The OX2R cells were seeded at 10,000 cells/well/50 μL and the OX1R cells were seeded at 20,000 cells/well/50 μL into 384-well white tissue culture plates (Greiner; cat #781080). All cell/media reagents were from GIBCO-Invitrogen Corp. The seeded cell plate(s) were incubated at 37° C. with 5% CO2 and 85% humidity for 20-24 hours. On the day of the assay, assay-ready compound plates were prepared using an acoustic liquid handler (ECHO; Labcyte), which dispensed sufficient volume of test compound stock (10 mM in DMSO) or 100% DMSO to prepare 10 point, ½-log dilutions in a final volume of 202.5 nL/well in all test wells of a 384-well diamond plate (Labcyte). Following completion of assay-ready plates, importantly, the next three steps were performed with minimal delay: 1) 20 μl of 1×stimulation buffer was added to the compound plate using a Multidrop Combi (small cassette, Thermo Fisher Scientific cat #24073290); 2) culture medium was removed from the cell plate using the Bluewasher plate washer (gentle spin; BlueCatBio); 3) 14 μl of compound/stimulation buffer mixture was added to the cell plate using a Bravo liquid handler (Agilent) prior to incubating cell plates at 37° C. with 5% CO2 and 85% humidity for 1 or 2 hours (OX1R and OX2R, respectively). During this incubation, IP-one detection reagents were prepared (38:1:1 lysis buffer:D2:AB-cryptate reagents). Six μL of mixed detection reagents were added to the cell plate using a Multidrop Combi (small cassette, Thermo Fisher Scientific cat #24073290) and incubated 60 minutes at room temperature in the dark. Fluorescence signal was detected using an Envision plate reader (Perkin Elmer) [LANCE/DELFIA Dual Enh (Em: APC 665; Ex: Cy5 620)].
For each compound, data were fit to a four parameter logistic fit (ActivityBase software) and the EC50 was reported as the inflection point of the resulting curve. Percent effect for each test compound was determined as the percentage of sample raw value/mean max effect, where the mean max effect was derived from the mean raw value of 32 control wells per assay plate (using Orexin A (cat #003-30) at 1 μM for human OX1R and a reference compound at 1 uM with 100% activity previously established by comparison to Orexin A for human OX2R). The intrinsic orexin receptor agonist activity of a compound which may be used in the present invention may be determined by these assays.

Row | IC50 [nM] | Compound
1 | 3.4 | CC(C)OC(=O)N1[C@H](C)C[C@H](NS(C)(=O)=O)[C@@H]1CO[C@H]1CC[C@@]2(c3ncc(F)cn3)C[C@H]2C1 (single isomer, unassigned) [Example 28]
2 | 2 | CC(F)COC(=O)N1[C@H](C)C[C@H](NS(C)(=O)=O)[C@@H]1CO[C@H]1CC[C@@]2(c3ncc(F)cn3)C[C@H]2C1 (stereo partly drawn) [Example 58, 2-fluoropropyl (2R,3S,5R)-2-((((1S,3S,6R)-6-(5-fluoropyrimidin-2-yl)bicyclo[4.1.0]heptan-3-yl)oxy)methyl)-5-methyl-3-(methylsulfonamido)pyrrolidine-1-carboxylate]
3 | 1.4 | COC(=O)N1[C@@H]2CCC[C@@H]2[C@H](NS(=O)(=O)CF)[C@@H]1COC1CCC2(c3ncc(F)cn3)CC2C1 (stereo partly drawn) [Example 130, methyl (2R,3S,3aS,6aR)-3-((fluoromethyl)sulfonamido)-2-(((6-(5-fluoropyrimidin-2-yl)bicyclo[4.1.0]heptan-3-yl)oxy)methyl)hexahydrocyclopenta[b]pyrrole-1(2H)-carboxylate]
4 | 2.1 | C[C@@H]1C[C@H](NS(C)(=O)=O)[C@H](CO[C@H]2CC[C@@]3(c4ncc(F)cn4)C[C@H]3C2)N1C(=O)OCC(C)(F)F [Example 64, 2,2-difluoropropyl (2R,3S,5R)-2-((((1S,3S,6R)-6-(5-fluoropyrimidin-2-yl)bicyclo[4.1.0]heptan-3-yl)oxy)methyl)-5-methyl-3-(methylsulfonamido)pyrrolidine-1-carboxylate]
5 | 2.3 | COC(=O)N1[C@H](C(F)F)C[C@H](NS(=O)(=O)C2CC2)[C@@H]1COC1CCC2(c3ncc(F)cn3)CC2C1 (stereo partly drawn) [Example 116, methyl (2R,3S,5S)-3-(cyclopropanesulfonamido)-5-(difluoromethyl)-2-(((6-(5-fluoropyrimidin-2-yl)bicyclo[4.1.0]heptan-3-yl)oxy)methyl)pyrrolidine-1-carboxylate]
6 | 11.1 | COC(=O)N1[C@H](C)C[C@H](NS(C)(=O)=O)[C@@H]1COC1CCC2(c3ncc(Cl)cn3)CC2C1 (stereo partly drawn) [Example 140, methyl (2R,3S,5R)-2-(((6-(5-chloropyrimidin-2-yl)bicyclo[4.1.0]heptan-3-yl)oxy)methyl)-5-methyl-3-(methylsulfonamido)pyrrolidine-1-carboxylate]
7 | 24.5 | COC(=O)N1[C@H](C)C[C@H](NS(C)(=O)=O)[C@@H]1CO[C@@H]1CC[C@]2(c3ncc(F)cn3)C[C@@H]2C1 (single isomer, unassigned) [Example 136]
8 | 1.4 | C[C@@H]1C[C@H](NS(C)(=O)=O)[C@H](CO[C@H]2CC[C@@]3(c4ncc(F)cn4)C[C@H]3C2)N1C(=O)OCCC(F)F [Example 52, 3,3-difluoropropyl (2R,3S,5R)-2-((((1S,3S,6R)-6-(5-fluoropyrimidin-2-yl)bicyclo[4.1.0]heptan-3-yl)oxy)methyl)-5-methyl-3-(methylsulfonamido)pyrrolidine-1-carboxylate]
9 | 3 | COC(=O)N1[C@H](C)C[C@H](NS(=O)(=O)C2CC2)[C@@H]1CO[C@H]1CC[C@@]2(c3ncc(F)cn3)C[C@H]2C1 [Example 42, methyl (2R,3S,5R)-3-(cyclopropanesulfonamido)-2-((((1S,3S,6R)-6-(5-fluoropyrimidin-2-yl)bicyclo[4.1.0]heptan-3-yl)oxy)methyl)-5-methylpyrrolidine-1-carboxylate]
10 | 0.86 | CC(C)OC(=O)N1CCC[C@H](NS(=O)(=O)C(F)F)[C@@H]1CO[C@H]1CC[C@@]2(c3ncc(F)cn3)C[C@H]2C1 [Example 121, isopropyl (2R,3S)-3-((difluoromethyl)sulfonamido)-2-((((1S,3S,6R)-6-(5-fluoropyrimidin-2-yl)bicyclo[4.1.0]heptan-3-yl)oxy)methyl)piperidine-1-carboxylate]

The next lines start with the compound.

Row | Compound | IC50 [nM]
11 | COC(=O)N1[C@H](C)C[C@H](NS(=O)(=O)CF)[C@@H]1COC1CCC2(c3ncc(F)c(OC)n3)CC2C1 (stereo partly drawn) [Example 85, methyl (2R,3S,5R)-2-(((6-(5-fluoro-4-methoxypyrimidin-2-yl)bicyclo[4.1.0]heptan-3-yl)oxy)methyl)-3-((fluoromethyl)sulfonamido)-5-methylpyrrolidine-1-carboxylate] | 25.2
12 | COC(=O)N1[C@H](C)C[C@H](NS(=O)(=O)CF)[C@@H]1COC1CCC2(c3ncc(Cl)c(OC)n3)CC2C1 (stereo partly drawn) [Example 86, methyl (2R,3S,5R)-2-(((6-(5-chloro-4-methoxypyrimidin-2-yl)bicyclo[4.1.0]heptan-3-yl)oxy)methyl)-3-((fluoromethyl)sulfonamido)-5-methylpyrrolidine-1-carboxylate] | 9.9
13 | COC(=O)N1CC[C@H](NS(C)(=O)=O)[C@@H]1COC1CCC2(c3ncccn3)CC2C1 (stereo partly drawn) [Example 185, methyl (2R,3S)-3-(methylsulfonamido)-2-(((6-(pyrimidin-2-yl)bicyclo[4.1.0]heptan-3-yl)oxy)methyl)pyrrolidine-1-carboxylate] | 1620
14 | COC(=O)N1[C@H](C)C[C@H](NS(=O)(=O)Cc2ccccc2)[C@@H]1CO[C@H]1CC[C@@]2(c3ncc(F)cn3)C[C@H]2C1 [Example 34, methyl (2R,3S,5R)-2-((((1S,3S,6R)-6-(5-fluoropyrimidin-2-yl)bicyclo[4.1.0]heptan-3-yl)oxy)methyl)-5-methyl-3-((phenylmethyl)sulfonamido)pyrrolidine-1-carboxylate] | 34.4
15 | COC(=O)N1[C@H](C)C[C@H](NS(C)(=O)=O)[C@@H]1COC1CCC2(c3ncc(F)c(C4CC4)n3)CC2C1 (stereo partly drawn) [Example 74, methyl (2R,3S,5R)-2-(((6-(4-cyclopropyl-5-fluoropyrimidin-2-yl)bicyclo[4.1.0]heptan-3-yl)oxy)methyl)-5-methyl-3-(methylsulfonamido)pyrrolidine-1-carboxylate] | 299
16 | COC(=O)N1[C@H](C)C[C@H](NS(C)(=O)=O)[C@@H]1COC1CCC2(c3nccs3)CC2C1 (stereo partly drawn) [Example 149, methyl (2R,3S,5R)-5-methyl-3-(methylsulfonamido)-2-(((6-(thiazol-2-yl)bicyclo[4.1.0]heptan-3-yl)oxy)methyl)pyrrolidine-1-carboxylate] | 179
17 | CC(C)OC(=O)N1[C@H](C)C[C@H](NS(C)(=O)=O)[C@@H]1COC1CCC2(c3ncc(Cl)cn3)CC2C1 (stereo partly drawn) [Example 154, isopropyl (2R,3S,5R)-2-(((6-(5-chloropyrimidin-2-yl)bicyclo[4.1.0]heptan-3-yl)oxy)methyl)-5-methyl-3-(methylsulfonamido)pyrrolidine-1-carboxylate] | 16.9
18 | COC(=O)N1[C@H](C)C[C@H](NS(=O)(=O)C(F)F)[C@@H]1CO[C@H]1CC[C@@]2(c3ncccn3)C[C@H]2C1 (single isomer, unassigned) [Example 68] | 1.5
19 | COC(=O)N1[C@@H]2CCC[C@@H]2[C@H](NS(C)(=O)=O)[C@@H]1COC1CCC2(c3ncccn3)CC2C1 (stereo partly drawn) [Example 175, methyl (2R,3S,3aS,6aR)-3-(methylsulfonamido)-2-(((6-(pyrimidin-2-yl)bicyclo[4.1.0]heptan-3-yl)oxy)methyl)hexahydrocyclopenta[b]pyrrole-1(2H)-carboxylate] | 22.6
